US9623016B2, “Antibacterial compounds” (Emergent Virology LLC, priority 2013, dated 2017)
≈ marks a conversion by molar mass, not a printed value.

Columns and labels:
S. aureus (USA300) [1] = test: Minimum Inhibitory Concentration (MIC); assay type: cell-based; settings: for visible growth: Table 3; for growth (OD600): Table 4
Protocol: The MIC assay is a technique used to determine the lowest concentration of a particular antibiotic needed to inhibit visible growth of bacteria. In this method, two fold serial dilutions of the compound were prepared in broth media. An inoculum of overnight bacterial cultures will be prepared in the same broth medium. The serial dilution tubes will be inoculated with 0.025 ml of undiluted over-night culture (1:100), a 1×10-2 dilution (1:10,000), or a 1×10-4 dilution (1:1,000,000) of bacterial suspension. Results were recorded after 24 hour incubation at 35° C. without shaking by measuring OD600. The MIC is determined by the lowest concentration of compound where no growth is visible.

E. coli K12 = test: Disc diffusion; assay type: cell-based
Protocol: (§1) Different concentrations of antimicrobial discs were made by incorporation of defined amount of the compound and were stored in a refrigerator (4° C.). Plates were swabbed in three directions with test bacteria to give uniform growth with 0.5 McFarland inocula. Antimicrobial discs were applied to the plates as soon as possible, but no longer than 15 minutes after inoculation. The plates were incubated at 37° C. for 18 hours. The growth inhibition zones around the disc were measured.

[2] = test system: E. coli In-house WT (SLR-IBT); test: Disc diffusion; assay type: cell-based
Protocol: as §1

S. aureus Col (MRSA) = test: Disc diffusion; assay type: cell-based
Protocol: as §1

B. subtilus ATCC 6051 = test: Disc diffusion; assay type: cell-based
Protocol: as §1

S. aureus 8325-4 = test: Disc diffusion; assay type: cell-based
Protocol: as §1

S. aureus USA300 = test: Disc diffusion; assay type: cell-based
Protocol: as §1

P. aeruginosa 4858 [3] = test: Disc diffusion; assay type: cell-based
Protocol: as §1

P. aeruginosa 4990 = test: Disc diffusion; assay type: cell-based
Protocol: as §1

S. pneumoniae ATCC 6301 = test: Disc diffusion; assay type: cell-based
Protocol: as §1

P. aeruginosa 4961 = test: Disc diffusion; assay type: cell-based
Protocol: as §1

[4] = test system: Staphylococcus aureus USA300
Protocol: The challenge inoculum included 6.13e4 cfu USA300+3% Hog mucin which causes bacteremia/sepsis within 24-72 h. […] The mice used were 6-8 week old female BALB/c mice in groups of 10. One group of 5 mice was also included to examine the potential toxicity of 3% hog mucin. Endpoint was day 10 post infection, death, or euthanasia Animals displaying severe illness as determined by >30% weight loss, extreme lethargy, or paralysis were euthanized. Observation included daily weight, health checks, and temperatures starting with the initiation of dosing until 10 days post challenge.

S. aureus = test: Minimum Bactericidal Concentration (MBC); assay type: cell-based; settings: UV-5; S. Aureus NCTC8325-4
Protocol: (§2) MBC is the lowest concentration of compound required to kill an organism. […] In the case of small colony variants, growth might not occur earlier than 48 hours.

P. aeruginosa 4858 [5] = test: Minimum Bactericidal Concentration (MBC); assay type: cell-based
Protocol: as §2

S. aureus (USA300) [6] = test: Minimum Bactericidal Concentration (MBC); assay type: cell-based
Protocol: as §2

S. aureus (Col) = test: Minimum Bactericidal Concentration (MBC); assay type: cell-based
Protocol: as §2

B. subtilis = test: Minimum Bactericidal Concentration (MBC); assay type: cell-based
Protocol: as §2

S. aureus (8324-5) = test: Minimum Bactericidal Concentration (MBC); assay type: cell-based
Protocol: as §2

CC[C@H]1OC(=O)[C@H](C)[C@@H](O[C@H]2C[C@@](C)(OC)[C@@H](O)[C@H](C)O2)[C@H](C)[C@@H](O[C@@H]2O[C@H](C)C[C@H](N(C)C)[C@H]2O)[C@](C)(O)C[C@@H](C)C(=O)[C@H](C)[C@@H](O)[C@]1(C)O [Erythromycin, reference compound]
visible growth (S. aureus (USA300) [1]; Erythromycin 0.20 ug/ml): + | growth (OD600) (S. aureus (USA300) [1]; Erythromycin 0.20 ug/ml): + (+ OD600 <0.05) | visible growth (S. aureus (USA300) [1]; Erythromycin 0.39 ug/ml): + | growth (OD600) (S. aureus (USA300) [1]; Erythromycin 0.39 ug/ml): + (+ OD600 <0.05) | visible growth (S. aureus (USA300) [1]; Erythromycin 0.78 ug/ml): + | growth (OD600) (S. aureus (USA300) [1]; Erythromycin 0.78 ug/ml): + (+ OD600 <0.05) | visible growth (S. aureus (USA300) [1]; Erythromycin 1.56 ug/ml): + | growth (OD600) (S. aureus (USA300) [1]; Erythromycin 1.56 ug/ml): + (+ OD600 <0.05) | visible growth (S. aureus (USA300) [1]; Erythromycin 3.13 ug/ml): + | growth (OD600) (S. aureus (USA300) [1]; Erythromycin 3.13 ug/ml): + (+ OD600 <0.05) | visible growth (S. aureus (USA300) [1]; Erythromycin 6.25 ug/ml): + | growth (OD600) (S. aureus (USA300) [1]; Erythromycin 6.25 ug/ml): + (+ OD600 <0.05) | visible growth (S. aureus (USA300) [1]; Erythromycin 25.00 ug/ml): − | growth (OD600) (S. aureus (USA300) [1]; Erythromycin 25.00 ug/ml): − (− OD600 >0.05) | visible growth (S. aureus (USA300) [1]; Erythromycin 50 ug/ml): − | growth (OD600) (S. aureus (USA300) [1]; Erythromycin 50 ug/ml): − (− OD600 >0.05) | visible growth (S. aureus (USA300) [1]; Erythromycin 100 ug/ml): − | growth (OD600) (S. aureus (USA300) [1]; Erythromycin 100 ug/ml): − (− OD600 >0.05) | zone of inhibition at 10 µg/disc (E. coli K12; Escherichia coli, K12, read-out: Inhibition zone diameter): 20 mm | zone of inhibition at 10 µg/disc ([2]; Escherichia coli, read-out: Inhibition zone diameter): 15 mm | zone of inhibition at 10 µg/disc (S. aureus Col (MRSA); Staphylococcus aureus, MRSA, read-out: Inhibition zone diameter): 42 mm | zone of inhibition at 10 µg/disc (B. subtilus ATCC 6051; read-out: Inhibition zone diameter): 35 mm | zone of inhibition at 10 µg/disc (S. aureus 8325-4; Staphylococcus aureus, 83254, read-out: Inhibition zone diameter): 35 mm | zone of inhibition at 10 µg/disc (S. aureus USA300; Staphylococcus aureus, USA300, read-out: Inhibition zone diameter): 15 mm | zone of inhibition at 10 µg/disc (P. aeruginosa 4858 [3]; Pseudomonas aeruginosa, 4858, read-out: Inhibition zone diameter): 8 mm | zone of inhibition at 10 µg/disc (P. aeruginosa 4990; Pseudomonas aeruginosa, 4990, read-out: Inhibition zone diameter): 20 mm | zone of inhibition at 10 µg/disc (S. pneumoniae ATCC 6301; Streptococcus pneumoniae, ATCC6301, read-out: Inhibition zone diameter): 38 mm | zone of inhibition at 10 µg/disc (P. aeruginosa 4961; Pseudomonas aeruginosa, 4961, read-out: Inhibition zone diameter): 18 mm

[N-]=[N+]=Nc1ccc(NCCCCCCN2C[C@H](O)[C@@H](O)[C@H](O)[C@H]2CO)c([N+](=O)[O-])c1 [UV-5, N—(N-{4′-azido-2′-nitrophenyl}-6-aminohexyl)deoxynojirimycin]
significance of survival increase vs water ([4]; 100 mg/kg UV-5 BID): not a statistically significant increase in survival | survival ([4]; 100 mg/kg UV-5 orally BID for 10 days, from 3 days before IP challenge, water control 30%): 70% | toxicity at the dose/regimen used ([4]; 100 mg/kg UV-5 orally BID, mice): some toxicity was observed | Inhibition zone diameter (E. coli K12; UV-5 160 ug disc): 12 mm | Inhibition zone diameter ([2]; UV-5 160 ug disc): 15 mm | Inhibition zone diameter (S. aureus Col (MRSA); UV-5 160 ug disc): 16 mm | Inhibition zone diameter (B. subtilus ATCC 6051; UV-5 160 ug disc): 18 mm | Inhibition zone diameter (S. aureus 8325-4; UV-5 160 ug disc): 16 mm | Inhibition zone diameter (S. aureus USA300; UV-5 160 ug disc): 16 mm | Inhibition zone diameter (P. aeruginosa 4858 [3]; UV-5 160 ug disc): 6 mm | Inhibition zone diameter (P. aeruginosa 4990; UV-5 160 ug disc): 6 mm | Inhibition zone diameter (S. pneumoniae ATCC 6301; UV-5 160 ug disc): 17 mm | Inhibition zone diameter (P. aeruginosa 4961; UV-5 160 ug disc): 14 mm | MBC (S. aureus): 10000 µg/mL (≈ 23.6 mM) | MBC (P. aeruginosa 4858 [5]; UV-5): 5000 µg/mL (≈ 11.8 mM) | growth after re-inoculation on BHI agar (P. aeruginosa 4858 [5]; UV-5 0.16 mg/ml): + | growth after re-inoculation on BHI agar (P. aeruginosa 4858 [5]; UV-5 0.3 mg/ml): + | growth after re-inoculation on BHI agar (P. aeruginosa 4858 [5]; UV-5 0.62 mg/ml): + | growth after re-inoculation on BHI agar (P. aeruginosa 4858 [5]; UV-5 2.5 mg/ml): + | growth after re-inoculation on BHI agar (P. aeruginosa 4858 [5]; UV-5 5 mg/ml): − | growth after re-inoculation on BHI agar (P. aeruginosa 4858 [5]; UV-5 10 mg/ml): − | growth after re-inoculation on BHI agar (P. aeruginosa 4858 [5]; UV-5 20 mg/ml): − | MBC (S. aureus (USA300) [6]; UV-5): 20000 µg/mL (≈ 47.1 mM) | growth after re-inoculation on BHI agar (S. aureus (USA300) [6]; UV-5 0.16 mg/ml): + | growth after re-inoculation on BHI agar (S. aureus (USA300) [6]; UV-5 0.3 mg/ml): + | growth after re-inoculation on BHI agar (S. aureus (USA300) [6]; UV-5 0.62 mg/ml): + | growth after re-inoculation on BHI agar (S. aureus (USA300) [6]; UV-5 2.5 mg/ml): + | growth after re-inoculation on BHI agar (S. aureus (USA300) [6]; UV-5 5 mg/ml): + | growth after re-inoculation on BHI agar (S. aureus (USA300) [6]; UV-5 10 mg/ml): + | growth after re-inoculation on BHI agar (S. aureus (USA300) [6]; UV-5 20 mg/ml): − | growth after re-inoculation on BHI agar (S. aureus (Col); UV-5 0.16 mg/ml): + | growth after re-inoculation on BHI agar (S. aureus (Col); UV-5 0.3 mg/ml): + | growth after re-inoculation on BHI agar (S. aureus (Col); UV-5 0.62 mg/ml): + | growth after re-inoculation on BHI agar (S. aureus (Col); UV-5 10 mg/ml): − | growth after re-inoculation on BHI agar (S. aureus (Col); UV-5 20 mg/ml): − | MBC (S. aureus (Col); UV-5, S. aureus COL MRSA): 2500 µg/mL (≈ 5.89 mM) | MBC (B. subtilis; UV-5): 2500 µg/mL (≈ 5.89 mM) | growth after re-inoculation on BHI agar (B. subtilis; UV-5 0.16 mg/ml): + | growth after re-inoculation on BHI agar (B. subtilis; UV-5 0.3 mg/ml): + | growth after re-inoculation on BHI agar (B. subtilis; UV-5 0.62 mg/ml): + | growth after re-inoculation on BHI agar (B. subtilis; UV-5 10 mg/ml): − | growth after re-inoculation on BHI agar (B. subtilis; UV-5 20 mg/ml): − | growth after re-inoculation on BHI agar (S. aureus (8324-5); UV-5 0.16 mg/ml): + | growth after re-inoculation on BHI agar (S. aureus (8324-5); UV-5 0.3 mg/ml): + | growth after re-inoculation on BHI agar (S. aureus (8324-5); UV-5 0.62 mg/ml): + | growth after re-inoculation on BHI agar (S. aureus (8324-5); UV-5 2.5 mg/ml): + | growth after re-inoculation on BHI agar (S. aureus (8324-5); UV-5 5 mg/ml): + | growth after re-inoculation on BHI agar (S. aureus (8324-5); UV-5 10 mg/ml): − | growth after re-inoculation on BHI agar (S. aureus (8324-5); UV-5 20 mg/ml): −
